Experimental data reported in ChEMBL document CHEMBL1201862, “PubChem BioAssay data set” (2004).
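Method: 48-hour compound exposure of cells in 96-well plates, five concentrations, linear interpolation of endpoints. GI50: concentration for 50% inhibition of growth.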 Calls of active or inactive are those of the source. Rule as the data show it: active = GI50 up to about 1.1 µM and inactive = higher.

How the values were obtained:
Assay in all cases: NCI tumour cell line growth inhibition, 48 h
A549 = tested on: A549
ACHN = tested on: ACHN
EKVX = tested on: EKVX
HOP-62 = tested on: HOP-62
LOX IMVI = tested on: LOX IMVI
MCF7 = tested on: MCF7
Malme-3M = tested on: Malme-3M
NCI-H23 = tested on: NCI-H23
NCI/ADR-RES = tested on: NCI/ADR-RES
OVCAR-8 = tested on: OVCAR-8
SK-MEL-28 = tested on: SK-MEL-28
SNB-75 = tested on: SNB-75
T47D = tested on: T47D
UACC-257 = tested on: UACC-257
UACC-62 = tested on: UACC-62
BT-549 = tested on: BT-549
IGROV-1 = tested on: IGROV-1
MOLT-4 = tested on: MOLT-4
NCI-H522 = tested on: NCI-H522

| SMILES | GI50 (A549) | GI50 (ACHN) | GI50 (EKVX) | GI50 (HOP-62) | GI50 (LOX IMVI) | GI50 (MCF7) | GI50 (Malme-3M) | GI50 (NCI-H23) | GI50 (NCI/ADR-RES) | GI50 (OVCAR-8) | GI50 (SK-MEL-28) | GI50 (SNB-75) | GI50 (T47D) | GI50 (UACC-257) | GI50 (UACC-62) | GI50 (BT-549) | GI50 (IGROV-1) | GI50 (MOLT-4) | GI50 (NCI-H522) |
| --- | --- | --- | --- | --- | --- | --- | --- | --- | --- | --- | --- | --- | --- | --- | --- | --- | --- | --- | --- |
| Cc1csc2nc(-c3ccc(Cl)c([N+](=O)[O-])c3)c(/C=N/NC(=N)N)n12 | 1.83 µM (inactive) | 1.6 µM (inactive) | 1.49 µM (inactive) | 1.61 µM (inactive) | 1.51 µM (inactive) | 1.26 µM (inactive) | 1.9 µM (inactive) | 1.7 µM (inactive) | 2.21 µM (inactive) | 0.406 µM (active) | 1.82 µM (inactive) | 1.57 µM (inactive) | 1.81 µM (inactive) | 0.459 µM (active) | 1.72 µM (inactive) |  |  |  |  |
| CCOC(=O)C12C3CCC1C2C(=O)C3 (configuration not stated) | > 100 µM (inactive) | > 100 µM (inactive) | > 100 µM (inactive) | > 100 µM (inactive) | > 100 µM (inactive) | > 100 µM (inactive) | > 100 µM (inactive) | > 100 µM (inactive) | > 100 µM (inactive) | > 100 µM (inactive) | > 100 µM (inactive) | > 100 µM (inactive) |  | > 100 µM (inactive) | > 100 µM (inactive) | > 100 µM (inactive) | > 100 µM (inactive) | > 100 µM (inactive) | > 100 µM (inactive) |
| Cc1c(NC(=S)Nc2ccc([N+](=O)[O-])cc2)c(=O)n(-c2ccccc2)n1C | > 100 µM (inactive) | > 100 µM (inactive) | > 100 µM (inactive) | > 100 µM (inactive) | > 100 µM (inactive) | > 100 µM (inactive) | > 100 µM (inactive) | > 100 µM (inactive) | > 100 µM (inactive) | > 100 µM (inactive) | > 100 µM (inactive) | > 100 µM (inactive) |  | > 100 µM (inactive) | > 100 µM (inactive) | > 100 µM (inactive) | > 100 µM (inactive) | 10.9 µM (inactive) | > 100 µM (inactive) |
| N#CC(/N=N/c1ccccc1C(=O)O)C(N)=O (configuration not stated) | > 100 µM (inactive) | 68.7 µM (inactive) | > 100 µM (inactive) | > 100 µM (inactive) |  |  | 91.2 µM (inactive) | > 100 µM (inactive) | 39.8 µM (inactive) |  | > 100 µM (inactive) | 60.3 µM (inactive) | > 100 µM (inactive) | > 100 µM (inactive) | > 100 µM (inactive) | > 100 µM (inactive) |  | > 100 µM (inactive) | > 100 µM (inactive) |
| COc1ccc(/C=C2\N=C(SC)N(CN3CCOCC3)C2=O)cc1 | 65.3 µM (inactive) | 43.3 µM (inactive) | 55.2 µM (inactive) | 69.7 µM (inactive) | 37.2 µM (inactive) | 16 µM (inactive) | 72.6 µM (inactive) | > 100 µM (inactive) | 80.9 µM (inactive) | 48.2 µM (inactive) | > 100 µM (inactive) | 60.7 µM (inactive) |  |  | 40.2 µM (inactive) |  | 37.5 µM (inactive) | 36.4 µM (inactive) | 82.8 µM (inactive) |
| CC1(C)C2CC(=O)C1(C)C(O)C2Br (configuration not stated) | > 100 µM (inactive) | > 100 µM (inactive) | > 100 µM (inactive) | > 100 µM (inactive) |  | > 100 µM (inactive) | > 100 µM (inactive) | > 100 µM (inactive) | > 100 µM (inactive) | > 100 µM (inactive) | > 100 µM (inactive) |  | > 100 µM (inactive) |  | > 100 µM (inactive) | > 100 µM (inactive) | > 100 µM (inactive) | > 100 µM (inactive) |  |
| CCC1C(=O)C(O)[C@H]2[C@@H]3C(O)CC4=CC(=O)CC[C@]4(C)[C@H]3CC[C@]12C (some centres not stated) | > 50 µM (inactive) | > 50 µM (inactive) | > 50 µM (inactive) | > 50 µM (inactive) | > 50 µM (inactive) | > 50 µM (inactive) | > 50 µM (inactive) | > 50 µM (inactive) | > 50 µM (inactive) | > 50 µM (inactive) | > 50 µM (inactive) | > 50 µM (inactive) | > 50 µM (inactive) | > 50 µM (inactive) | > 50 µM (inactive) |  | > 50 µM (inactive) | > 50 µM (inactive) | > 50 µM (inactive) |
| Cc1cc(OP2(=O)NCc3ncccc3O2)ccc1Cl (configuration not stated) | > 100 µM (inactive) | > 100 µM (inactive) | > 100 µM (inactive) | > 100 µM (inactive) | > 100 µM (inactive) | > 100 µM (inactive) |  | > 100 µM (inactive) | > 100 µM (inactive) | > 100 µM (inactive) | > 100 µM (inactive) | > 100 µM (inactive) | > 100 µM (inactive) | > 100 µM (inactive) | > 100 µM (inactive) | > 100 µM (inactive) | > 100 µM (inactive) | > 100 µM (inactive) |  |
